Laboratory results from patent US11820870B2, “Photocontrolled dynamic covalent linkers for polymer networks” (Northwestern University, priority 2018, dated 2023).

How the values were obtained:
[1] = Pseudo-first-order reversible esterification with pinacol (LCMS kinetics); assay type: physicochemical
Experimental: A small-molecule model compound, azobenzene 1, was first designed, in which the boronic acid was positioned ortho to the azo group (FIG. 5). Irradiation of (E)-1 with 365-nm light provided a 88:12 mixture of Z and E isomers. This mixture was subjected to excess pinacol in acetonitrile-water (1:1 v/v, 25° C.) to determine the apparent rates and equilibrium constants of boronic acid (1) esterification and boronic ester (2) hydrolysis for each isomer. While other 1,2- and 1,3-diols were hydrolyzed too quickly to be studied, the unusually slow rate of pinacol hydrolysis allowed the E and Z isomers to be resolved and their reaction kinetics to be monitored by high-performance liquid chromatography (HPLC; see Supporting Information (SI) for details).
After 8 hours, the reactions had reached equilibrium, with 39% conversion of (Z)-1 to (Z)-2 and only 9% conversion of (E)-1 to (E)-2 (FIG. 6A). Using a reversible pseudo-first-order kinetic model, it was determined that the esterification of (Z)-1 was 2.1 times faster than the esterification of (E)-1 (k1) (FIG. 6B, Table 1). The rates of hydrolysis could also be extracted from this model: (E)-2 underwent hydrolysis 2.0 times faster than (Z)-2 did (k−1). These apparent rate constants for hydrolysis were verified by hydrolyzing a mixture of (E)-2 and (Z)-2 under irreversible pseudo-first-order conditions (FIGS. 6C and 6D). Taken together, the apparent equilibrium to form boronic ester from boronic acid and pinacol is 4.3 times more favorable for the Z isomer relative to the E isomer. While convenient for small-molecule kinetic studies, the rate of pinacol ester formation is too slow to be practical for gelation. Thus, a less sterically hindered diol was used for hydrogel studies.
Stock solutions of (E)-1 or (E)-2 were prepared in acetonitrile at 800 μM. Serial dilutions were performed to obtain a final concentration of 12.5 μM. The solutions were directly injected onto the LCMS (Poroshell 120 column, EC-C18, 2.7 μm, 2.1×50 mm). Runs were ten minutes long with solvent gradient from 50:50 to 100:0 ACN:H2O in the first three minutes. Detection was performed at 254 nm with a variable-wavelength detector. The peak area for each concentration was recorded. A calibration curve was created. […] The concentration of the Z-isomer can be calculated from the known concentration of the E-isomer (based on the previously-generated calibration curve).
500 μL of a stock solution of 800 μM of (E)-1 was diluted with 500 μL of 80 mM of pinacol in DI water. The concentrations of (E)-1 and (E)-2 were monitored as a function of time using the above LCMS method. The observed rate constants of esterification (k1(E)) and hydrolysis (k−1(E)) were determined using the derivation shown below.
The data from the concentrations vs. time experiments was fit to the linear expression (1) for a reversible first order reaction and yields the slope denoted as equation (4). […] With the apparent equilibrium constant and slope known, the rates of hydrolysis can be determined with equation (5), and subsequently the rate of esterification can be determined.
500 μL of a stock solution of 800 μM of (E)-1 was irradiated with a 365 nm flashlight for 10 minutes to produce a mixture of (E)-1 and (Z)-1. The mixture was then diluted with 500 μL of a 80 mM pinacol solution in DI water, and the concentrations of (E)-2 and (Z)-2 were monitored as a function of time using the above LCMS method. […]

[2] = Pseudo-first-order irreversible hydrolysis of boronic ester (LCMS kinetics); assay type: physicochemical; conditions: obtained from the irreversible hydrolysis experiments; 1:1 ACN:H2O; average of three experiments
Experimental: After 8 hours, the reactions had reached equilibrium, with 39% conversion of (Z)-1 to (Z)-2 and only 9% conversion of (E)-1 to (E)-2 (FIG. 6A). Using a reversible pseudo-first-order kinetic model, it was determined that the esterification of (Z)-1 was 2.1 times faster than the esterification of (E)-1 (k1) (FIG. 6B, Table 1). The rates of hydrolysis could also be extracted from this model: (E)-2 underwent hydrolysis 2.0 times faster than (Z)-2 did (k−1). These apparent rate constants for hydrolysis were verified by hydrolyzing a mixture of (E)-2 and (Z)-2 under irreversible pseudo-first-order conditions (FIGS. 6C and 6D). […]
Stock solutions of (E)-1 or (E)-2 were prepared in acetonitrile at 800 μM. […] The peak area for each concentration was recorded. […] The concentration of the Z-isomer can be calculated from the known concentration of the E-isomer (based on the previously-generated calibration curve).
500 μL of a stock solution of 800 μM of (E)-2 was irradiated with a 365 nm flashlight for 10 minutes to produce a mixture of (E)-2 and (Z)-2. The mixture was then diluted with 500 μL of DI H2O and the concentration of (E)-2 and (Z)-2 was monitored as a function of time. The observed rate constants of hydrolysis k−1(E) and k−1(Z) were determined using the derivation shown below. […]

[3] = reversible esterification, 400 μM with 40 mM pinacol, 1:1 ACN:H2O, 25° C., average of three experiments

Compound	conversion of boronic acid to boronic ester at equilibrium ([1]; after 8 hours, excess pinacol, acetonitrile-water 1:1 v/v, 25° C.)	Keq [a] apparent equilibrium constant [1, 3]	k1 [a] apparent rate constant of esterification [1, 3]	k−1 [a] apparent rate constant of hydrolysis ([1]; obtained from the reversible esterification experiment, 1:1 ACN:H2O, average of three experiments)	hydrolysis rate (k−1), times faster than (Z)-2 ([1]; ratio E isomer to Z isomer)	k−1 [b] apparent rate constant of hydrolysis [2]
COC(=O)c1ccc(/N=N/c2ccccc2B(O)O)cc1 [(E)-1, (E)-(2-((4-(methoxycarbonyl)phenyl)diazinyl)phenyl)boronic acid]	9%	0.090 ± 0.016	2.56 ± 0.28 × 10^−5 s^−1			
COC(=O)c1ccc(/N=N/c2ccccc2B2OC(C)(C)C(C)(C)O2)cc1 [(E)-2, Methyl (E)-4-((2-(4,4,5,5-tetramethyl-1,3,2,-dioxaborolan-2-yl)phenyl)diazinyl)benzoate]				2.76 ± 0.32 × 10^−4 s^−1	2.0 times	2.83 ± 0.06 × 10^−4 s^−1
